Experimental data published in the NIST ThermoML archive (doi:10.1016/j.jct.2006.05.008).

Experiment: molar heat capacity at constant pressure
Settings: 101.33 kPa

CCn1cc[n+](C)c1.[Br-] [1-ethyl-3-methylimidazolium bromide]
molar heat capacity at constant pressure [J/K/mol], Small (less than 1 g) adiabatic calorimetry
Settings | Crystal | Liquid
5 K | 0.322 | –
10 K | 3.336 | –
15 K | 9.171 | –
20 K | 16.81 | –
25 K | 25 | –
30 K | 33.08 | –
35 K | 40.68 | –
40 K | 47.53 | –
45 K | 53.77 | –
50 K | 59.49 | –
60 K | 69.57 | –
70 K | 78.03 | –
80 K | 85.47 | –
80.24 K | 85.68 | –
83.06 K | 87.67 | –
85.79 K | 89.36 | –
88.55 K | 91.21 | –
90 K | 92.12 | –
91.34 K | 93.01 | –
94.15 K | 94.8 | –
96.98 K | 96.52 | –
99.83 K | 98.18 | –
100 K | 98.11 | –
102.69 K | 99.88 | –
105.57 K | 101.51 | –
108.46 K | 103.1 | –
110 K | 103.8 | –
111.37 K | 104.69 | –
114.29 K | 106.29 | –
117.22 K | 107.83 | –
120 K | 109.1 | –
120.16 K | 109.35 | –
123.11 K | 110.89 | –
126.08 K | 112.42 | –
129.06 K | 113.89 | –
130 K | 114.2 | –
132.03 K | 115.39 | –
135.01 K | 116.87 | –
138 K | 118.34 | –
140 K | 119.1 | –
140.99 K | 119.85 | –
143.99 K | 121.33 | –
146.99 K | 122.81 | –
149.99 K | 124.27 | –
150 K | 124.1 | –
152.99 K | 125.74 | –
156 K | 127.17 | –
159 K | 128.63 | –
160 K | 128.9 | –
162.08 K | 130.18 | –
165.15 K | 131.64 | –
168.15 K | 133.08 | –
170 K | 133.7 | –
171.16 K | 134.55 | –
174.16 K | 136.01 | –
177.16 K | 137.5 | –
180 K | 138.6 | –
180.15 K | 138.89 | –
183.15 K | 140.38 | –
186.14 K | 141.85 | –
189.13 K | 143.32 | –
190 K | 143.6 | –
192.12 K | 144.81 | –
195.1 K | 146.31 | –
198.07 K | 147.84 | –
200 K | 148.7 | –
201.05 K | 149.45 | –
204.01 K | 151.13 | –
206.98 K | 152.7 | –
209.94 K | 154.27 | –
210 K | 153.9 | –
212.9 K | 155.83 | –
215.85 K | 157.4 | –
218.78 K | 158.98 | –
220 K | 159.2 | –
221.71 K | 160.52 | –
224.63 K | 162.13 | –
227.55 K | 163.72 | –
230 K | 164.7 | –
230.45 K | 165.37 | –
233.35 K | 166.97 | –
236.24 K | 168.5 | –
239.13 K | 170.14 | –
240 K | 170.4 | –
242 K | 171.88 | –
244.87 K | 173.49 | –
247.74 K | 175.15 | –
250 K | 176.2 | –
250.59 K | 176.83 | –
253.44 K | 178.51 | –
256.25 K | 180.2 | –
259.07 K | 181.98 | –
260 K | 182.2 | –
261.87 K | 183.73 | –
264.68 K | 185.47 | –
267.47 K | 187.2 | –
270 K | 188.3 | –
270.26 K | 188.95 | –
273.03 K | 190.7 | –
275.79 K | 192.52 | –
278.53 K | 194.49 | –
280 K | 195.1 | –
281.26 K | 196.34 | –
283.96 K | 198.2 | –
286.66 K | 199.93 | –
289.36 K | 201.96 | –
290 K | 202 | –
292.03 K | 203.78 | –
294.7 K | 205.78 | –
297.36 K | 207.81 | –
298.15 K | 207.5 | –
299.92 K | 209.77 | –
300 K | 208.8 | –
310 K | 215.7 | –
320 K | 222.5 | –
330 K | 229.4 | –
340 K | 236.3 | –
347.66 K | – | 265.34
349.92 K | 243.1 | 264.8
350 K | – | 264.8
350.15 K | – | 266.1
352.61 K | – | 266.89
353.91 K | – | 267.52
355.07 K | – | 267.71
357.53 K | – | 268.53
359.99 K | – | 269.33
360 K | – | 268.6
361.35 K | – | 270.21
362.45 K | – | 270.78
364.95 K | – | 271.95
366.81 K | – | 270.88
367.5 K | – | 272.58
370 K | – | 272.4

Crystal
Settings | molar heat capacity at constant pressure [J/K/mol]
5.194 K | 0.3611
5.579 K | 0.4605
5.885 K | 0.5503
6.228 K | 0.6668
6.606 K | 0.8178
6.985 K | 0.9897
7.365 K | 1.183
7.747 K | 1.406
8.13 K | 1.655
8.515 K | 1.937
8.9 K | 2.249
9.286 K | 2.597
9.673 K | 2.979
10.06 K | 3.401
10.55 K | 3.999
11.14 K | 4.807
11.73 K | 5.74
12.32 K | 6.81
12.91 K | 7.996
13.54 K | 8.107
14.21 K | 8.109
14.85 K | 8.978
15.58 K | 10.01
16.41 K | 11.22
17.25 K | 12.49
18.08 K | 13.77
18.92 K | 15.08
19.75 K | 16.41
20.88 K | 18.28
22.31 K | 20.62
23.74 K | 22.98
25.17 K | 25.34
26.6 K | 27.65
28.05 K | 30.01
29.5 K | 32.33
30.94 K | 34.65
32.4 K | 36.88
33.85 K | 39.07
35.31 K | 41.18
36.76 K | 43.24
38.22 K | 45.23
39.68 K | 47.2
41.38 K | 49.4
43.34 K | 51.87
45.31 K | 54.3
47.28 K | 56.63
49.24 K | 58.85
51.21 K | 60.97
53.18 K | 63
55.14 K | 65
57.11 K | 66.93
59.08 K | 68.82
61.05 K | 70.7
63.03 K | 72.54
65 K | 74.25
66.98 K | 75.86
68.96 K | 77.42
70.95 K | 78.97
72.93 K | 80.48
74.92 K | 82.06
76.91 K | 83.6
78.9 K | 85.15
80.9 K | 86.6
82.91 K | 87.82
